# Assay results taken from patent publication US20220339143A1, “TAK-925 FOR USE IN TREATING NARCOLEPSY” (Takeda Pharmaceutical Company Limited, priority 2019, published 2022).
# Values joined by “and” are separate entries in the source; they are usually repeats but may differ in a detail not shown here. Equal values may be shown once.
# What was measured:
# [1] = system: patients with NT1; assay: Safety and tolerability of multiple IV administration in patients with NT1; format: in vivo, human
# Method: The purpose of the study was to evaluate the safety, tolerability, pharmacokinetics and pharmacodynamics of Compound A after multiple IV administration in patients with NT1. NT1 patients were evaluated in Cohort B1 and B2 (Table 19). Compound A or placebo were administered via IV infusion over 9 hours once daily for 7 days. A total of 13 patients with NT1 were treated with Compound A or placebo (4, 4, and 5 subjects in the placebo, Compound A 11 mg, and Compound A 44 mg groups, respectively). In this part, potential efficacy of Compound A was evaluated with MWT, ESS, KSS, night-time PSG (NPSG), cataplexy frequency assessment, and PGI-C as an exploratory PD assessment.
# [2] = system: patients with narcolepsy type 1 (NT1); assay: Sleep latency in Maintenance of Wakefulness Test (MWT), single dose (Cohorts 5, 6, 7); format: in vivo, human; conditions: for average sleep latency in MWT, mean (SD): NT1 (placebo 2.88); for Average Sleep Latency in MWT: Cohort 5, 6, 7
# Method: In Part 2, NT1 patients received a single dose of Compound A or placebo administered as a continuous IV infusion over a 9-hour period during the day. A 40-minute Maintenance of Wakefulness Test (MWT) was conducted 4 times during the continuous IV infusion to assess effects on wakefulness in soporific conditions at 2, 4, 6 and 8 hours from start of infusion. Three cohorts of patients were enrolled (n=14 total).
# The average sleep latency in the Maintenance Wakefulness Test (MWT)
# Sleep related parameters in the MWT (sleep latency (SL) in each session).
# The pharmacodynamics (PD) for sleepiness is shown in FIG. 8, which depicts the average post-dose MWT sleep latency for NT1 patients overall all dose time points. Due to the crossover design, some subjects in the placebo group were the same as some subjects in 5 mg-44.8 mg group.
structure (smiles),measurement,setting,value
"COC(=O)N1CCC[C@H](NS(C)(=O)=O)[C@@H]1CO[C@H]1CC[C@@H](c2ccccc2)CC1 [Compound A, methyl (2R,3S)-3-((methylsulfonyl)amino)-2-(((cis-4-phenylcyclohexyl)oxy)methyl)piperidine-1-carboxylate]",BP and PR increases vs plasma exposure,[1]; NT1 patient populations,A trend for the observed BP and PR increases with increasing Compound A plasma exposure was observed
same,safety and tolerability,"[1]; multiple IV administrations of up to 44 mg, 9 h infusion once daily for 7 days, NT1",safe and well tolerated
same,SAE and TEAE leading to study drug discontinuation,"[1]; multiple IV administrations of up to 44 mg, NT1","There was no SAE, and no TEAE leading to study drug discontinuation"
same,"average sleep latency in MWT, LS mean difference (95% CI) minus placebo",[2]; 5 mg,"18.792 (11.987, 25.596) min"
same,"average sleep latency in MWT, mean (SD)",[2]; 5 mg single 9 h IV infusion,22.38 (10.125) min and 22.4 min and 22.38 min
same,"Sleep latency in MWT by visit, Mean","[2]; 5 mg, 10:00 (infusion start 7:45)",25.25 min
same,"Sleep latency in MWT by visit, Mean","[2]; 5 mg, 12:00",29.75 min
same,"Sleep latency in MWT by visit, Mean","[2]; 5 mg, 14:00",8.92 min
same,"Sleep latency in MWT by visit, Mean","[2]; 5 mg, 16:00",25.58 min
same,"average sleep latency in MWT, LS mean difference (95% CI) minus placebo",[2]; 11.2 mg,"36.063 (27.729, 44.396) min"
same,subjects achieving the maximum sleep latency (40 min) in MWT,[2]; 11.2 mg,3 out of 4
same,"average sleep latency in MWT, mean (SD)",[2]; 11.2 mg single 9 h IV infusion,37.59 (4.813) min and 37.6 min and 37.59 min
same,"Sleep latency in MWT by visit, Mean","[2]; 11.2 mg, 10:00",37.38 min
same,"Sleep latency in MWT by visit, Mean","[2]; 11.2 mg, 14:00",33.00 min
same,"Sleep latency in MWT by visit, Mean","[2]; 11.2 mg, 16:00",40.00 min
same,"average sleep latency in MWT, LS mean difference (95% CI) minus placebo",[2]; 44.8 mg,"36.662 (27.344, 45.979) min"
same,"average sleep latency in MWT, mean (SD)",[2]; 44.8 mg single 9 h IV infusion,40.00 (0.000) min and 40 min
same,subjects achieving the maximum sleep latency (40 min) in MWT,"[2]; 44.8 mg, all four 40-min trials",4 out of 4
same,"Sleep latency in MWT by visit, Mean","[2]; 44.8 mg, 10:00",40.00 min
same,"Sleep latency in MWT by visit, Mean","[2]; 44.8 mg, 12:00",40.00 min
same,"Sleep latency in MWT by visit, Mean","[2]; 44.8 mg, 14:00",40.00 min
same,"Sleep latency in MWT by visit, Mean","[2]; 44.8 mg, 16:00",40.00 min
same,effect on wakefulness as measured by time to sleep onset on the MWT,"[2]; 5, 11.2, 44.8 mg, NT1 patients",clear dose dependent effect
same,Average Sleep Latency in MWT,"[2]; Cmpd A 5 mg, Mean",22.38 min
same,Average Sleep Latency in MWT,"[2]; Cmpd A 5 mg, Median",21.69 min
same,Average Sleep Latency in MWT,"[2]; Cmpd A 11.2 mg, Mean",37.59 min
same,Average Sleep Latency in MWT,"[2]; Cmpd A 11.2 mg, Median",40.00 min
same,Average Sleep Latency in MWT,"[2]; Cmpd A 44.8 mg, Mean",40.00 min
same,Average Sleep Latency in MWT,"[2]; Cmpd A 44.8 mg, Median",40.00 min
same,mean sleep latency in the lunch session (14:00),[2]; higher dose groups of Compound A,over 30 min
